Values quoted from earlier work as cited in US20120277693A1, “METHOD AND APPARATUS FOR IMPROVING THE APPEARANCE OF NAILS AFFECTED BY ONYCHOMYCOSIS THROUGH THE TOPICAL APPLICATION OF AN AQUEOUS SOLUTION CONTAINING BORIC ACID AND CAMPHOR OR OTHER TERPENES” (priority 2009, published 2012).

Legend:
[1] = in boiling water; believed to be approximately; also printed as 280 g/L or 4.53 mole/L
[2] = test system: fungal nail infection; conditions: topical lacquer painted daily on infected nails

Row | boric acid concentration, supersaturated [1] | Structure (SMILES) | patients in whom the treatment is effective [2]
1 | approximately 28% | OB(O)O [boric acid] | –
2 | – | Cc1cc(C2CCCCC2)n(O)c(=O)c1 [ciclopirox] | less than 10%
